# Active and inactive are the calls of the source. The rule behind the calls is not given here.
# How the values were obtained:
# Cricetinae gen. sp. [1] = assay: In vivo activity in a cholesterol-fed hamster assay was determined at 1 mg/kg/day; format: functional, Cricetulus griseus
# Cricetinae gen. sp. [2] = assay: Effective dose required to produe activity in cholesterol hamster assay was determined; na means not applicable; format: functional, organism-based; conditions: Cricetulus griseus
# Cricetinae gen. sp. [3] = assay: Effective dose required to produe activity in cholesterol hamster assay was determined; format: functional, Cricetulus griseus
# Cricetinae gen. sp. [4] = assay: In vivo activity in a cholesterol-fed hamster assay was determined at 50 mg/kg/day; format: functional, Cricetulus griseus
# Cricetinae gen. sp. [5] = assay: In vivo activity in a cholesterol-fed hamster assay was determined at 10 mg/kg/day; format: functional, Cricetulus griseus
SMILES,Reduction (Cricetinae gen. sp. [1]) [%],ED50 (Cricetinae gen. sp. [2]),ED50 (Cricetinae gen. sp. [3]) [mg/kg/day],Reduction (Cricetinae gen. sp. [4]) [%],Reduction (Cricetinae gen. sp. [5]) [%]
O=C1[C@H](CC[C@H](O)c2ccc(I)cc2)[C@@H](c2ccc(O)cc2)N1c1ccc(F)cc1,-54,inactive,–,–,–
O=C1[C@H](CC[C@H](O)c2ccc(F)cc2)[C@@H](c2ccc(O)cc2)N1c1ccc(I)cc1,-63,–,0.49,–,–
COc1ccc([C@@H]2[C@@H](CCCc3ccccc3)C(=O)N2c2ccc(I)cc2)cc1 (racemic),–,inactive,–,-82,–
COc1ccc([C@@H]2[C@@H](CCCc3ccc(I)cc3)C(=O)N2c2ccc(OC)cc2)cc1 (racemic),–,inactive,–,-56,–
"O=C(O)[C@H]1OC(Oc2ccc([C@@H]3[C@@H](CC[C@H](O)c4ccc(F)cc4)C(=O)N3c3ccc(I)cc3)cc2)C(O)[C@@H](O)[C@@H]1O (single isomer, unassigned)",-54,inactive,–,–,–
O=C1[C@H](CC[C@H](O)c2ccc(F)cc2)[C@@H](c2ccc(O)cc2)N1c1ccc(F)cc1 [EZETIMIBE],-100,–,0.04,–,–
COc1ccc([C@@H]2[C@@H](CCCc3ccccc3)C(=O)N2c2ccc(OC)cc2)cc1 [SCH-48461],–,–,2.2,–,-93
